Measurements taken from article PMC4645181, “Spontaneous membrane-translocating peptides: influence of peptide self-aggregation and cargo polarity” (Scientific Reports, 2015).
Several values for one entry are separate records, joined by “and”; a condition that tells them apart may be missing. Identical values can stand only once. Where a SMILES comes first, the peptide text is derived from it. The star is where a group is joined. X2 = CN(C)c1ccc2c(-c3ccc(N4C(=O)CC(*)C4=O)cc3C(=O)[O-])c3ccc(=[N+](C)C)cc-3oc2c1; X1 = CCOC(=O)c1cc2cc3c(cc2oc1=O)N(CC(=O)NCCN1C(=O)CC(*)C1=O)C(C)(C)CC3C

What was measured:
[1] = Critical Micelle Concentration by pyrene 1:3 ratio method; assay type: physicochemical; conditions: water solutions, 25 °C, 5 × 10^−7 μM pyrene, excitation 335 nm, I1 373 nm / I3 385 nm, 0.5-100 μM peptide, center of Boltzmann sigmoid fit
Method: All the peptide solutions were always freshly prepared and dye-labeled peptides were quantified by UV-Vis absorbance. Unlabeled peptides were quantified by amino acidic digestion obtained by the mineralization of a known amount of peptide (5–50 μg) dissolved in 200–500 μl of HCl 6 M, with the following conditions: temperature: 170 °C; time: 20 minutes. Finally, derivatized amino acids were detected by RP-HPLC (Jupiter 4 μm Proteo 90 Å column (250 × 4.6 mm; Phenomenex) with these solvents: water:TFA 100:0.01 v/v (eluent A)/acetonitrile:water:TFA 95:5:0.01 v/v (eluent B), flux 1 ml/min, and their identity was confirmed by electrospray mass spectroscopy. CMC values of peptide and labeled-peptide systems were then determined by the pyrene 1:3 ratio method. Fluorescence emission spectra at 25 °C of unlabeled and labeled peptide water solutions containing 5 × 10^−7 μM pyrene were recorded using an excitation wavelength of 335 nm. The intensities I1 and I3 were measured at the wavelengths corresponding to the first and third vibronic bands of pyrene (373 nm, emission range: 368–378 nm, and 385 nm, emission range: 380–390 nm, respectively). According to literature, the plot of the pyrene 1:3 ratio index as a function of the concentration of the surfactant can be described by a decreasing sigmoid of the Boltzmann type and indicates the transition from the monomeric to the aggregated form of the peptide. Experimental raw data were fitted using the OriginPro8 software, and the center of the sigmoid is identified as the characteristic CMC.

CHO-K1 cells [2] = assay: WST-8 Cell Viability Assay; assay type: cell-based, Chinese Hamster
Method: Cytotoxicity of unlabeled peptides and dye-labeled peptides was evaluated by the WST-8 assay. CHO-K1 cell proliferation was evaluated by plating 5 × 10^3 cells per well in 96-well plates. After 24 hours in serum-containing DMEM-F12 medium, the cells were incubated with a serum-free DMEM-F12 solution of unlabeled or dye-labeled peptides for 2 hours at 37 °C. After the incubation, the medium was removed, cells were washed with PBS 1X and incubated for 2 hours at 37 °C with 100 μl of a 10%-solution of WST-8 dissolved in serum-containing DMEM-F12. Absorbance at 450 nm was measured using a multiplate reader (Microplate Reader, GloMax®-Discover and Explorer Systems, Promega). Cell viability was quantitatively determined by comparing peptide-treated cells with untreated cells (as a reference of 100% viability) and cells treated with dimethyl sulfoxide (DMSO) 20% v/v. Reported data represent the average of three independent experiments, in which three wells for each concentration were measured. Error bars represent the standard errors.

CHO-K1 cells [3] = assay: Cell uptake / translocation by confocal fluorescence microscopy; assay type: cell-based, Chinese Hamster; conditions: all concentrations tested (0.5-10 μM), serum-free medium, peptide from water stock, 20 min at 37 °C
Method: Homogeneous peptide solutions used for translocation experiments were always freshly prepared. Purified dye-labeled peptides were pre-dissolved in 100–200 μl of water and sonicated for 15 minutes at 25 °C. Then they were quantified by UV-Vis absorbance (concentration ranging between 100 and 200 μM; for ATTO 425 Maleimide: ε436(water) = 45000 cm^−1M^−1, for TAMRA: ε543(water) = 80000 cm^−1M^−1). An appropriate amount from this stock water-solution was diluted in 200–300 μl of serum-free DMEM F-12 growth medium and then administered to cells. Ionic strength was adjusted to physiological values adding the required amount of 10X PBS buffer.
Chinese Hamster Ovary (CHO-K1) and PgsA-745 cells were purchased from ATCC (reference numbers: CCL-61 and CRL-2242, respectively) and grown in DMEM F-12 medium supplemented with 10% of Fetal Bovine Serum (FBS) at 37 °C with 5% CO2, according to manufacturer’s instructions. […]
Confocal imaging experiments were performed with a Leica TCS SP5 SMD inverted confocal microscope (Leica Microsystems) interfaced with a diode laser (Picoquant) for excitation at 405 nm. […] All images and videos collected were analyzed by ImageJ software version 1.440 (NIH Image; http://rsbweb.nih.gov/ij/). […] RICS correlation function was calculated by the SimFCS software, developed at the Laboratory for Fluorescence Dynamics (www.lfd.uci.edu). […]

[4] = Dynamic Light Scattering of peptide aggregates; assay type: physicochemical; conditions: water solutions at 100 μM (above CMC), 25 °C, scattering angle 90°, average of five consecutive measurements
Method: DLS measurements were performed at 25 °C in a 50-μL quartz cuvette on a Zetasizernano ZS DLS (Malvern Instrument) following the manufacturer’s instructions. Water solutions of labeled-peptide at 100 μM were analyzed with a single scattering angle of 90°. Each value reported is the average of five consecutive measurements.

[5] = UV absorption of peptide in water after addition from DMSO stock (precipitation); assay type: physicochemical; conditions: 2μM in water, added directly from DMSO stock, UV absorption versus addition from water solution; consistent with a precipitate
Method: Fig S5: UV absorption spectra of TP2 at 2μM concentration in water, measured upon addition of the peptide directly from DMSO stock solution (blue trace) or from a water solution (black trace). Only this latter procedure yields the expected absorption spectrum (indicated by the dashed black line). […] This in turn is consistent with the formation of a stabilized phase that is not diffusing in solution, but likely under the form of a precipitate.

Row | peptide apparently lost upon direct addition from DMSO to water [5] [%] | Molecule | Critical Micelle Concentration (CMC) [1] | cell viability (CHO-K1 cells [2]; 20 µM) [%] | cell viability (CHO-K1 cells [2]; 30 µM) [%] | uptake mechanism (confocal imaging) (CHO-K1 cells [3]) | hydrodynamic radius (RH) from DLS [4] [nm]
1 | – | CN(C)c1ccc2c(-c3ccc(N4C(=O)C=CC4=O)cc3C(=O)[O-])c3ccc(N(C)C)cc3[o+]c2c1 [TAMRA, Tetramethylrhodamine-5-maleimide] | ~80 µM and 80 ± 14 µM | – | – | – | –
2 | – | CCOC(=O)c1cc2cc3c(cc2oc1=O)N(CC(=O)NCCN1C(=O)CC(SC[C@H](NC(=O)CNC(=O)[C@H](CCCNC(=N)N)NC(=O)[C@H](CC(C)C)NC(=O)[C@H](CC(C)C)NC(=O)[C@H](CCCNC(=N)N)NC(=O)[C@H](CC(C)C)NC(=O)[C@H](Cc2ccc(O)cc2)NC(=O)[C@@H](NC(=O)[C@H](CC(C)C)NC(=O)[C@@H]2CCCN2)[C@@H](C)CC)C(=O)O)C1=O)C(C)(C)CC3C (stereo partly drawn) [TM9-ATTO 425] (H-PLIYLRLLRGC(X1)-OH) | – | 60 | 40 | – | –
3 | – | CC[C@H](C)[C@H](NC(=O)[C@H](CC(C)C)NC(=O)[C@@H]1CCCN1)C(=O)N[C@@H](Cc1ccc(O)cc1)C(=O)N[C@@H](CC(C)C)C(=O)N[C@@H](CCCNC(=N)N)C(=O)N[C@@H](CC(C)C)C(=O)N[C@@H](CC(C)C)C(=O)N[C@@H](CCCNC(=N)N)C(=O)NCC(=O)N[C@@H](CSC1CC(=O)N(c2ccc(-c3c4ccc(=[N+](C)C)cc-4oc4cc(N(C)C)ccc34)c(C(=O)[O-])c2)C1=O)C(=O)O (stereo partly drawn) [TM9-TAMRA] (H-PLIYLRLLRGC(X2)-OH; N-terminus and C-terminus assumed) | 3.8 ± 0.5 µM | – | – | only endocytosis is present | 135 ± 14
4 | ~60 | PLIYLRLLR-G-QF [TP2] | 1.0 ± 0.2 µM | – | – | – | 163 ± 6
